Assay type in all cases: in vivo
The subject of series [1] is tobacco budworm (Heliothis virescens). The series can be described thus: Test B: control of tobacco budworm by soil application to tomato plants, excised-leaf feeding, visual mortality. The note with it: 96 h, read-out: % Mortality (Observed). The method, then:
(§1) For evaluating control of cabbage looper (Trichoplusia ni) and tobacco budworm (Heliothis virescens), methomyl was in liquid formulation as Lannate® LV (29% of active ingredient). Oxamyl was in liquid formulation as Vydate® L (24% of active ingredient).
(§2) The test compounds were dissolved in water. Enough water was added to make 57 ppm of the Lannate® LV and 250 and 500 ppm of active ingredient for Vydate® L. To obtain the desired mixture concentrations of each compound, twice the desired concentration of each of the two mixture compounds were mixed together in equal volumes.
(§3) For the cabbage looper trial, diluted solutions (50 mL) of the test compounds were applied to the soil surface of five-week-old cabbage plants at the desired concentrations, corresponding to 135 g a.i./ha (g active ingredient/hectare) of methomyl and 404 and 807 g a.i./ha of oxamyl. For the tobacco budworm trial, diluted solutions (50 mL) of the test compounds were applied to the soil surface of five-week-old tomato plants at the desired concentrations, corresponding to 92 g a.i./ha (g active ingredient/hectare) of methomyl and 404 and 807 g a.i./ha of oxamyl. The plants were maintained in a greenhouse for 24 h. From each plant, leaves were excised, cut into pieces, and placed singly into 5.5 cm-by-3.5 cm cell of a sixteen-cell plastic tray. Each cell contained solidified agar (3 to 5 mL) to prevent desiccation. A single 4-day old insect larva was placed in each cell, with two trays per treatment. Trays were held in a growth chamber at 25° C., 16-hour light/8-hour dark photoperiod, 60% relative humidity for 4 days.

For series [2], the system named is cabbage looper (Trichoplusia ni). The series can be described thus: Test B: control of cabbage looper by soil application to cabbage plants, excised-leaf feeding, visual mortality. The note with it: 96 h, read-out: % Mortality (Observed). The method, then:
as §1, §2, §3

The test system of series [3] is beet armyworm (Spodoptera exigua). The series can be described thus: Test A: control of beet armyworm by soil application to tomato plants, excised-leaf feeding, visual mortality. The method, then:
For evaluating control of beet armyworm (Spodoptera exigua), methomyl was in liquid formulation as Lannate® LV (29% of active ingredient). Oxamyl was in liquid formulation as Vydate® L (24% active ingredient).
The test compounds were dissolved in water. Enough water was added to make 29 ppm of active ingredient for Lannate® LV and 500 ppm of active ingredient for Vydate® L. To obtain the desired mixture concentrations of each compound, twice the desired concentration of each of the two mixture partner compounds were mixed together in equal volumes.
Diluted solutions (50 mL) of the test compounds were applied to the soil surface of five-week-old tomato plants at the desired concentration, corresponding to 47 g a.i./ha (g active ingredient/hectare) of methomyl and 807 g a.i./ha of oxamyl. The plants were maintained in a greenhouse for 24 h. From each plant, leaves were excised, cut into pieces, and placed singly into 5.5 cm-by-3.5 cm cell of a sixteen-cell plastic tray. Each cell contained solidified agar (3 to 5 mL) to prevent desiccation. A single 4-day old insect larva was placed in each cell, with one tray per treatment. Trays were held in a growth chamber at 25° C., 16-hour light/8-hour dark photoperiod, 60% relative humidity for 4 days.

The mortality is the percentage killed.

`CNC(=O)ON=C(C)SC` [Methomyl, methyl N-[[(methylamino)carbonyl]oxy]-ethanimidothioate]: the mortality at 92 g/ha in series [1] (methomyl 92 g a.i./ha, soil application, five-week-old tomato plants) was determined as 41%. Further, the mortality at 135 g/ha in series [2] (methomyl 135 g a.i./ha, soil application, five-week-old cabbage plants) was 75%. The mortality at 47 g/ha in series [3] (Spodoptera exigua, methomyl 47 g a.i./ha, soil application, five-week-old tomato plants, evaluated at 96 h, read-out: % mortality (observed)) turned out to be 44%.
As for `CNC(=O)ON=C(SC)C(=O)N(C)C` [Oxamyl, methyl 2-(dimethylamino)-N-[[(methylamino)-carbonyl]oxy]-2-oxoethanimidothioate], the mortality at 404 g/ha was 6% in series [1] (soil) and 16% in series [2] (soil). In addition, the mortality at 807 g/ha in series [1] (soil) was determined as 13%; in series [2] (soil), 38%; in series [3] (Spodoptera exigua, soil, 96 h, read-out: % mortality (observed)), 0%. In addition, in series [3] (oxamyl 807 g a.i./ha, soil application, five-week-old tomato plants, evaluated at 96 h), the “% mortality (observed)” value is “no mortality”.
